Data on nine molecules can be found in paper PMC8822458, “Synthesis and bioactivity of pyrrole-conjugated phosphopeptides” (Beilstein Journal of Organic Chemistry, 2022).

Series [1] concerns HeLa cells. As to the kind of experiment: MTT cell viability of HeLa cells. As for the experimental part: We examined the cytotoxicity of the synthesized compounds by incubating them with HeLa cells because HeLa cells overexpress ALP and are widely available. By incubating 200 μM of each compound with HeLa cells for 24 hours, we employed MTT assay to determine the cell viability of the HeLa cells. […]
S3. Cel l culture and cell viability
HeLa cell line was purchased from American Type Culture Collection (ATCC, Manassas, VA, USA). HeLa cells were cultured in MEM medium with 100 U mL-1 penicillin and 100 μg mL-1 streptomycin. Cells were cultured at 37 °C in a humidified atmosphere of 5% CO 2.
MTT assay was used to determine the cytotoxicity of the compounds against HeLa cells.
Cells were seeded in 96-well plate at 1.0 × 10^5 cells/well for 24 hours followed by culture medium removal. Fresh culture medium containing different concentrations of compounds were then added. After incubated at 37 °C for 24/48/72 hours, the culture medium with compounds were replaced by fresh culture m edium plus 10 μL of MTT solution (5 mg/mL). After incubated at 37 °C for another 4 hours, 100 μL of SDS-HCl solution was added to stop the reduction and dissolve formazan formed. A DTX880 […]
Multimode Detector was used to measure the absorbance of each well at 595 nm, and cell viability was calculated as percentage relative to untreated cells. Data were […]

A short description of series [2]: Circular dichroism of assemblies before and after ALP. The format is physicochemical. The conditions noted are these: circular dichroism before and after ALP (Figure S34).
From the text: In addition to the TEM images, we used circular dichroism (CD) to reveal the secondary structures of the assemblies before and after enzymatic action.
Details of series [3]: method as in PMID 25230147. The conditions noted are these: TEM, ALP 0.5 U/mL, PBS buffer pH 7.4; cited from earlier work.
The nature of series [4]: TEM morphology of peptide assemblies before and after ALP. The conditions noted are these: 400 μM and 200 μM, PBS buffer pH 7.4. Type of series: physicochemical. The source says: Figure 3 A) TEM images of 1 before and after addition of ALP (0.5 U/mL) in PBS buffer (pH 7.4). Scale bar is 100 nm. Figure 3A was reprinted with permission from https://pubs.acs.org/doi/10.1021/bm5010355, Copyright 2014 American Chemical Society. This content is not subjected to CC-BY 4.0. Permission requests related to the material excerpted should be directed to the ACS. […] Scale bar is 200 nm.
Figure S1. Cell viability of HeLa cells treated with different compounds.
S4. TEM sample preparation
400-mesh copper grids coated with continuous thick carbon film (~35 nm) were glow discharged, on which 3 μL of samples were placed. After washed with ddH2O and uranyl acetate (UA), the sample-loaded grids were stained with UA. The residual UA was removed by filter paper and then air-dried.

Where two headings read alike, the source gives them in different places. *1 amine or outer side, *2 acyl side, *3 side chain or, on linkers, in order; H or OH if unused. Where a SMILES comes first, the peptide text is derived from it. [ ]: non-standard residue; d: D form. The star is where a group is joined. d(pY) = N[C@H](Cc1ccc(OP(=O)(O)O)cc1)C(=O)O; pY = N[C@@H](Cc1ccc(OP(=O)(O)O)cc1)C(=O)O; d(pS) = N[C@H](COP(=O)(O)O)C(=O)O; Guanidinoacetyl = N=C(N)NCC(=O)*; X2 = Cn1cc(N[*:1])cc1C(=O)[*:2]; X1 = Cn1cc(N)cc1C(=O)*

Consider `Cn1cc(NC(=O)c2cc(N)cn2C)cc1C(=O)NCC(=O)NCC(=O)NCC(=O)N[C@@H](Cc1ccccc1)C(=O)N[C@@H](Cc1ccccc1)C(=O)N[C@@H](Cc1ccc(OP(=O)(O)O)cc1)C(=O)O` [3a] (X1-[X2]GGGFF[pY]-OH), for which the “Cell viability of HeLa cells” value in series [1] (24 h, 200 μM) was determined as 86.0%.

Regarding `Cn1cc(NC(=O)c2cc(NC(=O)c3cc(N)cn3C)cn2C)cc1C(=O)NCC(=O)NCC(=O)NCC(=O)N[C@@H](Cc1ccccc1)C(=O)N[C@@H](Cc1ccccc1)C(=O)N[C@@H](Cc1ccc(OP(=O)(O)O)cc1)C(=O)O` [3b] (X1-[X2][X2]GGGFF[pY]-OH), the “Cell viability of HeLa cells” value in series [1] (24 h, 200 μM) is reported as 97.2%.

For `Cn1cc(NC(=O)c2cc(NC(=O)CNC(=N)N)cn2C)cc1C(=O)NCC(=O)NCC(=O)NCC(=O)N[C@H](Cc1ccccc1)C(=O)N[C@H](Cc1ccccc1)C(=O)N[C@H](Cc1ccc(OP(=O)(O)O)cc1)C(=O)O` [10b] (Guanidinoacetyl-[X2][X2]GGG[dF][dF][d(pY)]-OH), the “Cell viability of HeLa cells” value in series [1] (24 h, 200 μM) is on record as “about 70%”.

Turning to `O=C(Cc1ccc2ccccc2c1)N[C@H](Cc1ccccc1)C(=O)N[C@H](Cc1ccccc1)C(=O)N[C@H](Cc1ccc(OP(=O)(O)O)cc1)C(=O)O` [compound 1, Nap-ffpy, reference compound], in series [1] (400 μM), the “Inhibition / compatibility with HeLa cells (in words)” value is recorded as “significantly inhibits”. In addition, the “Inhibition of HeLa cell proliferation (in words)” value in series [1] (MTT, 200 μM, day 3) was “begins to reduce cell viability”; in series [1] (MTT, concentrations lower than 100 μM, over 3 days) it was “hardly inhibits”. Besides, the “Change of CD signal upon ALP treatment” value in series [2] is listed as “significant change”. The “Change of morphology of the assemblies after ALP” value in series [3] is “morphological transition from nanoparticles of 1 to networks of nanofibers”.

As to `Cn1cc(NC(=O)c2cc(N)cn2C)cc1C(=O)NCC(=O)NCC(=O)NCC(=O)N[C@H](Cc1ccccc1)C(=O)N[C@H](Cc1ccccc1)C(=O)N[C@H](COP(=O)(O)O)C(=O)O` [4a] (X1-[X2]GGG[dF][dF][d(pS)]-OH), the “Cell viability of HeLa cells” value in series [1] (MTT, 200 μM, 24 h, 37 °C, absorbance 595 nm, relative to untreated cells, n = 3 wells) is 69.2%; in series [1] (MTT, 400 μM, day 1, n = 3 wells), 72.3%. In series [1] (MTT, 20 to 400 μM, day 2 and 3), the “Inhibition of HeLa cell proliferation (in words)” value is reported as “largely vanishes”. The “Change of morphology of the assemblies after ALP” value in series [4] (1 U/mL ALP, 24 h) is on record as “little change in the morphology”. For the same molecule, the “Morphology of the assemblies before ALP” value in series [4] was “networks of nanoparticles”. Besides, the “Change of CD signal upon ALP treatment” value in series [2] is “merely slight changes”.

As for `Cn1cc(N)cc1C(=O)NCC(=O)NCC(=O)NCC(=O)N[C@H](Cc1ccccc1)C(=O)N[C@H](Cc1ccccc1)C(=O)N[C@H](Cc1ccc(OP(=O)(O)O)cc1)C(=O)O` [2f, Py-GGGffpy] (X1-GGG[dF][dF][d(pY)]-OH), the “Cell viability of HeLa cells” value in series [1] (24 h, 200 μM) was determined as 92.8%.

Take `Cn1cc(NC(=O)OC(C)(C)C)cc1C(=O)Nc1cc(C(=O)N[C@H](Cc2ccccc2)C(=O)N[C@H](Cc2ccccc2)C(=O)N[C@H](Cc2ccc(OP(=O)(O)O)cc2)C(=O)O)n(C)c1` [compound 9]: the “Cell viability of HeLa cells” value in series [1] (24 h, 200 μM) was “about 70%”.

As for `Cn1cc(NC(=O)CNC(=N)N)cc1C(=O)NCC(=O)NCC(=O)NCC(=O)N[C@H](Cc1ccccc1)C(=O)N[C@H](Cc1ccccc1)C(=O)N[C@H](Cc1ccc(OP(=O)(O)O)cc1)C(=O)O` [10a] (Guanidinoacetyl-[X2]GGG[dF][dF][d(pY)]-OH), the “Cell viability of HeLa cells” value in series [1] (24 h, 200 μM) is “about 70%”.

In the case of `Cn1cc(N)cc1C(=O)Nc1cc(C(=O)Nc2cc(C(=O)N[C@H](Cc3ccccc3)C(=O)N[C@H](Cc3ccccc3)C(=O)N[C@H](Cc3ccc(OP(=O)(O)O)cc3)C(=O)O)n(C)c2)n(C)c1` [2b], in series [1] (24 h, 200 μM), the “Cell viability of HeLa cells” value is 142.6%.
